Test results taken from patent publication US20110119780A1, “SCREENING FOR NON-GENOTOXIC CARCINOGENS” (priority 2008, published 2011).
Values joined by “and” are separate entries in the source; they are usually repeats but may differ in a detail not shown here. Equal entries are not always repeated. Where two headings read alike, the source gives them in different places.

Assays:
[1] = parameters: species or system mice; conditions: mouse, in vivo, po, 50 mg/kg
Experimental: Animals were treated either with 4 daily doses of Wy-14,643/corn oil (50 mg/kg, orally) or with corn oil alone, as shown in Table 2. Approximately 24 hr after the last dose, all mice were sacrificed using an increasing concentration of CO2. Liver and plasma were collected for analysis. Following treatment with Wy-14,643 or the vehicle (corn oil), the mice were sacrificed and their livers removed and weighed. […] The concentration of inducing agent was of supplied chemical, without any correction for purity. The volume administered was 10 ml/kg bodyweight. […] On the day of termination the mice were weighed, the body weights recorded, and then transferred to a suitable room for post mortem. Approximately 24 hrs after treatment, the mice will be killed by exposure to a rising concentration of CO2.

[2] = format: in vivo, mice; conditions: for Diluted Chol / Diluted HDL / Diluted LDL / Diluted Trig: dilution factor 2; for Diluted Chol / Diluted HDL / Diluted LDL / Diluted Trig / Normalised Chol / Normalised HDL / Normalised LDL / Normalised Trig: individual mice
Experimental: The plasma was processed by taking blood from the terminated mice by cardiac puncture into lithium/heparin-coated tubes. Following removal into suitable tubes for plasma preparation, terminal blood samples taken by cardiac puncture were mixed on a roller for 10 min then cooled on ice. Red blood cells were removed by centrifugation (2,000-3,000 rpm for 10 min at 8-10° C.). Immediately after centrifugation, the supernatant (plasma) was collected in eppendorfs and kept on wet ice. Plasma was transferred into cryovials for clinical chemistry and immediately flash frozen in liquid nitrogen, then stored at approximately −70° C. […] In order to investigate potential hepatotoxicity caused by Wy-14,643 treatment, markers of liver damage, alanine aminotransferase (ALT), aspartate aminotransferase (AST) and alkaline phosphatase (ALP) were measured in WT and hPPARα mice (Tables 6-8). Liver related plasma biomarkers, albumin (ALB), conjugated and total bilirubin (BIL-D and BIL-T respectively), cholesterol, high density lipoprotein (HDL-C), low density lipoprotein (LDL-C) and triglycerides were also investigated in all available plasma samples in order to characterise basal hepatic function in hPPARα mice relative to WT mice (Tables 9-15).

Cyp4a protein = conditions: WT mice; liver microsomes; 50 mg/kg orally x4 daily
Experimental: Henderson, University of Dundee, UK). The standard used was APFO-induced WT rat liver microsomes (1 μg protein loaded).
To investigate the downstream effects of PPARα activation, the expression of Cyp4a proteins was evaluated by immunoblot analysis in liver microsomes from WT and hPPARα mice.
Individual liver microsomal samples were analysed by immunoblotting for Cyp4a. Protein concentration was measured using the CXR microlowry method. Quantification of Cyp4a protein in mouse liver microsomes was carried out. A murine his-tagged Cyp4a recombinant standard was loaded onto the NU-PAGE gel.

[3] = system: cyanide-insensitive palmitoyl-CoA oxidation; test: Cyanide-insensitive palmitoyl CoA oxidation in mouse liver (crude mitochondria); format: in vivo; conditions: for PCO oxidation, NAD + red.: crude mitochondrial fraction of liver, 50 mg/kg orally x4 daily, individual mice, 50 mg/kg
Experimental: Measurements of cyanide-insensitive pCoA oxidation in crude mitochondrial fractions were performed as described.

Cyp4a activity = conditions: mouse, in vivo
Experimental: Lauric acid hydroxylation activity measurements in liver microsomes were performed.
Liver microsomes from each available animal were evaluated for Cyp4a activity by measuring lauric acid hydroxylation (FIG. 19, Tables 17-18).

[4] = WT mice, plasma, 50 mg/kg orally x4 daily, 50 mg/kg
[5] = WT mice, plasma, 50 mg/kg orally x4 daily, n = 3
[6] = WT mice, plasma, % mean own control
[7] = hPPARα mice, plasma, 50 mg/kg orally x4 daily, 50 mg/kg

SMILES: Cc1cccc(Nc2cc(Cl)nc(SCC(=O)O)n2)c1C [Wy-14,643]
- Body weights, % Mean [1]: 98%
- Body weights, Mean [1]: 26 g
- Liver body weight ratios, % Mean [1]: 139%
- Liver body weight ratios, Mean [1]: 6.46%
- Liver weights, % Mean [1]: 135%
- Liver weights, Mean [1]: 1.69 g
- triglyceride concentrations, decrease compared to corresponding control mice ([2]; WT mice, p<0.05): ~50%
- Diluted Chol [2, 4]: 1.25 mmol/L and 1.02 mmol/L and 1.40 mmol/L
- Diluted HDL [2, 4]: 1.28 mmol/L and 1.02 mmol/L and 1.36 mmol/L
- Diluted LDL [2, 4]: 0.12 mmol/L and 0.08 mmol/L and 0.14 mmol/L
- Diluted Trig [2, 4]: 0.27 mmol/L and 0.21 mmol/L and 0.31 mmol/L
- Normalised Chol [2, 4]: 2.50 mmol/L and 2.04 mmol/L and 2.80 mmol/L
- Normalised HDL [2, 4]: 2.56 mmol/L and 2.04 mmol/L and 2.72 mmol/L
- Normalised LDL [2, 4]: 0.24 mmol/L and 0.16 mmol/L and 0.28 mmol/L
- Normalised Trig [2, 4]: 0.54 mmol/L and 0.42 mmol/L and 0.62 mmol/L
- Cholesterol, Mean [2, 5]: 2.45 mmol/L
- HDL, Mean [2, 5]: 2.44 mmol/L
- LDL, Mean [2, 5]: 0.23 mmol/L
- Triglycerides, Mean [2, 5]: 0.53 mmol/L
- Cholesterol, % Mean [2, 6]: 97%
- HDL, % Mean [2, 6]: 103%
- LDL, % Mean [2, 6]: 89%
- Triglycerides, % Mean [2, 6]: 56%
- Diluted Chol [2, 7]: 1.18 mmol/L and 1.47 mmol/L
- Diluted HDL [2, 7]: 1.14 mmol/L and 1.46 mmol/L
- Diluted LDL [2, 7]: 0.07 mmol/L and 0.11 mmol/L
- Diluted Trig [2, 7]: 0.64 mmol/L and 0.60 mmol/L
- Normalised Chol [2, 7]: 2.36 mmol/L and 2.94 mmol/L
- Normalised HDL [2, 7]: 2.28 mmol/L and 2.92 mmol/L
- Normalised LDL [2, 7]: 0.14 mmol/L and 0.22 mmol/L
- Normalised Trig [2, 7]: 1.28 mmol/L and 1.20 mmol/L
- ALP, % Mean ([2]; mouse, in vivo): 129%
- ALT, % Mean ([2]; mouse, in vivo): 117%
- AST, % Mean ([2]; mouse, in vivo): 121%
- Albumin, % Mean ([2]; mouse, in vivo): 101%
- BIL-D, % Mean ([2]; mouse, in vivo): 22%
- BIL-T, % Mean ([2]; mouse, in vivo): 69%
- ALP, Mean ([2]; mouse, in vivo, po, 50 mg/kg): 129 U/L
- ALT, AST and ALP concentration (plasma markers of hepatotoxicity) ([2]; mouse, in vivo, po, 50 mg/kg): unaltered
- ALT, Mean ([2]; mouse, in vivo, po, 50 mg/kg): 34 U/L
- AST, Mean ([2]; mouse, in vivo, po, 50 mg/kg): 119 U/L
- Albumin, Mean ([2]; mouse, in vivo, po, 50 mg/kg): 38 g/L
- BIL-D, Mean ([2]; mouse, in vivo, po, 50 mg/kg): 0.08 µmol/L
- BIL-T, Mean ([2]; mouse, in vivo, po, 50 mg/kg): 17 µmol/L
- Plasma albumin levels ([2]; mouse, in vivo, po, 50 mg/kg): unaltered
- triglyceride concentrations, decrease compared to corresponding control mice ([2]; the two hPPARα mice): 25% and 29%
- Cyp4a protein expression (immunoblot, 50 kD band) (Cyp4a protein): marked induction
- PCO oxidation, % MEAN ([3]; WT mice, % mean own control): 265%
- PCO oxidation, NAD + red. ([3]; WT mice): 79 nmol/min/mg and 73 nmol/min/mg and 82 nmol/min/mg
- PCO oxidation, NAD + red., MEAN ([3]; WT mice, n = 3): 78 nmol/min/mg
- cyanide-insensitive pCoA oxidation, induction relative to vehicle controls ([3]; both mouse lines (WT, hPPARα), crude mitochondrial fractions): approximately 3 fold
- PCO oxidation, NAD + red. ([3]; hPPARα mice): 41 nmol/min/mg and 53 nmol/min/mg
- Formation of 11-OH lauric acid, % MEAN (Cyp4a activity): 308%
- Formation of 11-OH lauric acid, MEAN (Cyp4a activity): 3.0 nmol/min/mg
- Formation of 12-OH lauric acid, % MEAN (Cyp4a activity): 1669%
- Formation of 12-OH lauric acid, MEAN (Cyp4a activity): 9.2 nmol/min/mg
